Measured values reported in US12491170B2, “Stable treprostinil prodrugs” (United Therapeutics Corporation, priority 2020, dated 2025).

How the values were obtained:
[1] = Hydrolysis of prodrugs to treprostinil at pH 6, 7, 8 and 40 C; format: physicochemical
Description: Tables 24, 25 and 26 present data for hydrolysis of selected treprostinil prodrugs at pH 6, 7 and 8, respectively, and 40 C.

[2] = biological target: T1, prostaglandin D2 (PGD2) receptor 1 (DP1) (Homo sapiens, UniProt Q13258); experiment: DP1 receptor cAMP agonist assay (HEK293T cells); format: cell-based; conditions: for DP1 Relative to Tre: relative to treprostinil EC50 values, * partial agonists or ambiguous dose-response curves
T1 sequence (Q13258 1-359): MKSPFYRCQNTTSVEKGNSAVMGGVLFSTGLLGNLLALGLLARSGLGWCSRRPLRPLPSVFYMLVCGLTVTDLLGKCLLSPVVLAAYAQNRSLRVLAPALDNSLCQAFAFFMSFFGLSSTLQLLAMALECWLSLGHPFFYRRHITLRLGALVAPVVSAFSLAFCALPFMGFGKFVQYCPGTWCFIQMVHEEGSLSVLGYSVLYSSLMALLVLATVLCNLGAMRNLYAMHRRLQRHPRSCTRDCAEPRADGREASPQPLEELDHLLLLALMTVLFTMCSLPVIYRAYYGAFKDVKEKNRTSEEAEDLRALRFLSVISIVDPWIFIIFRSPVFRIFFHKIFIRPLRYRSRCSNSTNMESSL
Procedure: (§1) Cyclic AMP assay kit: Multiscreen™ TR-FRET cAMP 1.0 No Wash Assay Kit (Multispan, Inc.)
(§2) Cells were thawed from frozen cells and resuspended in assay buffer at desired concentrations. cAMP or Calcium assays were performed according to the manufacturer's protocol using Multiscreen™ TR-FRET cAMP 1.0 No Wash Assay Kit or Multiscreen™ Calcium 1.0 No Wash Kit.
(§3) Gas Cyclic AMP (cAMP) Assay: In agonist mode testing, cells were seeded in a 384-well plate at an appropriate density and then were treated with compounds and incubated at 37° C. for 20 minutes. The reaction was terminated by […] trFluor™ Eu-labeled cAMP and trFluor™ 650-labeled anti-cAMP antibody in lysis buffer. […] All testing wells contained 0.1% DMSO in the final concentrations.
(§4) Data in graphs are represented in Mean±SD. Dose-dependent responses were fitted with sigmoidal dose-response curves allowing variable slopes using GraphPad Prism version 6 (Graphpad Prism).
(§5) These studies used cell lines overexpressing either human IP, EP2 or DP1, or EP1 receptors, and following incubation with varying concentrations of compounds, cAMP levels were measured using Fluorescence Resonance Energy Transfer (FRET).

[3] = biological target: prostaglandin E2 (PGE2) receptor 2 (EP2) (Homo sapiens, UniProt P43116); experiment: EP2 receptor cAMP agonist assay (HEK293T cells); format: cell-based; conditions: for EP2 Relative to Tre: Table 22, relative to treprostinil EC50 values, * partial agonists or ambiguous dose-response curves
Procedure: as §1, §2, §3, §4, §5

[4] = biological target: prostaglandin I2 (PGI2) receptor (IP) (Homo sapiens, UniProt P43119); experiment: IP receptor cAMP agonist assay (CHO-K1 cells); format: cell-based; conditions: relative to treprostinil EC50 values, * partial agonists or ambiguous dose-response curves
Procedure: as §1, §2, §3, §4, §5

[5] = Stability in human subcutaneous skin homogenate

Chain of prostaglandin E2 (PGE2) receptor 2 (EP2) (P43116 whole entry): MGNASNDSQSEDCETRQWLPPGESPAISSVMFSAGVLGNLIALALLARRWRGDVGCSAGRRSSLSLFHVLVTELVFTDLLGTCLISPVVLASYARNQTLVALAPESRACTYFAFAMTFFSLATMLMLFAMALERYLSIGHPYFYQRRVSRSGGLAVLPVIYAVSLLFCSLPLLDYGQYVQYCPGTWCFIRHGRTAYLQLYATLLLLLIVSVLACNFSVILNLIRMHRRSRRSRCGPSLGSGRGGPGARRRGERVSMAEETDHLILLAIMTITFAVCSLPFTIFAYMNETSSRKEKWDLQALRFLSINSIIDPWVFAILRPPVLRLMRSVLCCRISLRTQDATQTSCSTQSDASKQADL
Chain of prostaglandin I2 (PGI2) receptor (IP) (P43119 whole entry): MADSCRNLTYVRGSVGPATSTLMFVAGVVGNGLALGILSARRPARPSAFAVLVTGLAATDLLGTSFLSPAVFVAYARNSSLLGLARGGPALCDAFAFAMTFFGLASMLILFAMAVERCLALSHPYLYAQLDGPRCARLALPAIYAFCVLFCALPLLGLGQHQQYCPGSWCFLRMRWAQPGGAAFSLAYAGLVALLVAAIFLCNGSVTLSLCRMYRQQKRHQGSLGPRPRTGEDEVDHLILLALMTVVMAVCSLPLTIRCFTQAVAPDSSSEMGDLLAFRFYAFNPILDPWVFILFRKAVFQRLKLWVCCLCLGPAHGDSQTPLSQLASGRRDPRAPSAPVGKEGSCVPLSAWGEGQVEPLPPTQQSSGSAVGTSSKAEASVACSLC

Row | Compound | Hydrolysis to treprostinil, % Area, t = 1 week ([1]; pH 6, 40 C.) | Hydrolysis to treprostinil, % Area, t = 2 weeks ([1]; pH 6, 40 C.) | Hydrolysis to treprostinil, % Area, t = 3 weeks ([1]; pH 6, 40 C.) | Hydrolysis to treprostinil, % Area, t = 1 week ([1]; pH 7, 40 C.) | Hydrolysis to treprostinil, % Area, t = 2 weeks ([1]; pH 7, 40 C.) | Hydrolysis to treprostinil, % Area, t = 3 weeks ([1]; pH 7, 40 C.) | Hydrolysis to treprostinil, % Area, t = 1 week ([1]; pH 8, 40 C.) | Hydrolysis to treprostinil, % Area, t = 2 weeks ([1]; pH 8, 40 C.) | Hydrolysis to treprostinil, % Area, t = 3 weeks ([1]; pH 8, 40 C.) | DP1 Relative to Tre ([2]; Table 22) | EP2 Relative to Tre [3] | IP Relative to Tre ([4]; Table 22) | further results
1 | CCCCCC(CCC1C(O)CC2Cc3c(cccc3OCC(=O)O)CC21)OC(=O)C12CC3CC(CC(C3)C1)C2 (stereo not drawn) [Prodrug LXIX] | 0.00 % Area | 0.00 % Area | 0.00 % Area | 0.00 % Area | 0.00 % Area | 0.00 % Area | 0.00 % Area | 0.00 % Area | 0.00 % Area | 1897x | 236x* | 1470x* | –
2 | CCCCCC(CCC1C(O)CC2Cc3c(cccc3OCC(=O)O)CC21)OC(=O)C(C)C (stereo not drawn) [Prodrug LXVII] | 0.00 % Area | 0.00 % Area | 0.00 % Area | 0.00 % Area | 0.00 % Area | 0.00 % Area | 0.00 % Area | 0.23 % Area | 0.27 % Area | 184x | 34x* | 148x | –
3 | treprostinil diphosphate [Prodrug LXXIII] | 0.00 % Area | 0.00 % Area | 0.00 % Area | 0.00 % Area | 0.00 % Area | 0.00 % Area | 0.00 % Area | 0.00 % Area | 0.00 % Area | 217x | – | 208x | DP1 Relative to Tre ([2]; Table 23): 217x; Activity at the DP1 receptor compared to treprostinil ([2]; summary of findings): several hundred-fold less active; AUC ([5]; human): 2.744 µmol·min/L; Mono AUC (treprostinil formed) ([5]; human): 2.744 µmol·min/L; Percent Remaining (Avg, n = 3) 0 min ([5]; pooled human skin homogenate, 1 μM, 37° C., 0 min): 100%; Percent Remaining (Avg, n = 3) 30 min ([5]; pooled human skin homogenate, 1 μM, 37° C., 30 min): 86.2%; Percent Remaining (Avg, n = 3) 60 min ([5]; pooled human skin homogenate, 1 μM, 37° C., 60 min): 71.2%; Percent Remaining (Avg, n = 3) 120 min ([5]; pooled human skin homogenate, 1 μM, 37° C., 120 min): 64.0%; Activity at the EP2 receptor compared to treprostinil ([3]; summary of findings): inactive; IP Relative to Tre ([4]; Table 23): 208x
